Source: ChEMBL document CHEMBL1275338, “Design, synthesis and bioevaluation of dihydropyrazolo[3,4-b]pyridine and benzo[4,5]imidazo[1,2-a]pyrimidine compounds as dual KSP and Aurora-A kinase inhibitors for anti-cancer agents” (Bioorg Med Chem, 2010)

How the values were obtained:
[1] = target: T1, Kinesin-like protein KIF11 (Homo sapiens, UniProt P52732); assay: Inhibition of human Eg5 motor domain (residues 2-386) ATPase activity expressed in Escherichia coli assessed as release of inorganic phosphate after 30 mins
T1 sequence (P52732 whole entry): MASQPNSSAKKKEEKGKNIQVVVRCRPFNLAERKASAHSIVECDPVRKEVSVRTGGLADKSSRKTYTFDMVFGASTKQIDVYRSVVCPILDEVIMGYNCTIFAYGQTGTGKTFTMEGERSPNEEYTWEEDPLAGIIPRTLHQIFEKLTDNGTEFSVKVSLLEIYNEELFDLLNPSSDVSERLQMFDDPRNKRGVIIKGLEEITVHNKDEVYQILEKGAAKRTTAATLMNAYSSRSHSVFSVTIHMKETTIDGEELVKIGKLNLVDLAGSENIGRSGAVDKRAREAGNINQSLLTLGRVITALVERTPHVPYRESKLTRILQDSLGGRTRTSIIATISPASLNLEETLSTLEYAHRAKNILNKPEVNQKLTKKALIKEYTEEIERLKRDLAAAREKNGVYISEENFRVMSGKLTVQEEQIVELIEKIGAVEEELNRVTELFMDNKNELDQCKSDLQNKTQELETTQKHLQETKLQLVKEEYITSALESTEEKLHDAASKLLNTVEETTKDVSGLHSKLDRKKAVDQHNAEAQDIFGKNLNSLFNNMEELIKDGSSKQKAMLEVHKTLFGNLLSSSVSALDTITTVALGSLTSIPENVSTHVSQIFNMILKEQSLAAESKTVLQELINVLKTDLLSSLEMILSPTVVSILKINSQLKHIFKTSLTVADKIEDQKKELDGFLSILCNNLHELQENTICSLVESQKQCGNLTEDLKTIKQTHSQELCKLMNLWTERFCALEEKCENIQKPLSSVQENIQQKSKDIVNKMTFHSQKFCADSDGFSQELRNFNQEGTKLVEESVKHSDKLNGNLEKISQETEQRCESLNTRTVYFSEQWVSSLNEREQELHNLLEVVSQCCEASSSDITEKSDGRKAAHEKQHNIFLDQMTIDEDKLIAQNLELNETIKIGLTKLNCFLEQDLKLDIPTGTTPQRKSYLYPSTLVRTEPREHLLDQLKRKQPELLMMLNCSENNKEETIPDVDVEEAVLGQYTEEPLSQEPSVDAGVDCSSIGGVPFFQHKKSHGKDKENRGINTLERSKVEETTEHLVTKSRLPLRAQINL

Aurora kinase A = target: T2, Aurora kinase A (Homo sapiens, UniProt O14965); assay: Inhibition of human purified recombinant aurora-A kinase
T2 sequence (O14965 whole entry): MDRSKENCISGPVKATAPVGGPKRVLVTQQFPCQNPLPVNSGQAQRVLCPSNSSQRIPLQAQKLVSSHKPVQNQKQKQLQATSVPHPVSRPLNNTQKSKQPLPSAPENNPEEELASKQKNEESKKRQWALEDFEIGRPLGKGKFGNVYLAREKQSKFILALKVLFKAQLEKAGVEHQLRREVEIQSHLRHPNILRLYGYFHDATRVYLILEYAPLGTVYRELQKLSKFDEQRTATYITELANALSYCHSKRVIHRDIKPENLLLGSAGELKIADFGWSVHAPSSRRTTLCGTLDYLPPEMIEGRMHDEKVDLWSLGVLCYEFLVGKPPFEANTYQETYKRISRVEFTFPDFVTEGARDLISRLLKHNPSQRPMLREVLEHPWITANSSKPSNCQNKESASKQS

HepG2 = assay: cells; conditions: Homo sapiens, HepG2, 72 h
Description: Cytotoxicity against human HepG2 cells after 72 hrs by MTT assay

HCT-116 [2] = assay: cells; conditions: Homo sapiens, HCT-116, 72 h
A2780 = assay: cells; conditions: Homo sapiens, A2780, 72 h
Description: Cytotoxicity against human A2780 cells after 72 hrs by MTT assay

HCT-116 [3] = assay: Ratio of CPUYL064 IC50 to compound IC50 for human HCT116 cells

SMILES	IC50 [1]	IC50 (Aurora kinase A)	IC50 (HepG2)	IC50 (HCT-116 [2])	IC50 (A2780)	Ratio IC50 (HCT-116 [3])
COc1ccc(NC(=O)C2=C(C)Nc3n[nH]cc3C2c2ccccc2)cc1 (configuration not stated)	2820 nM	–	–	–	–	–
CC1=C(C(=O)Nc2ccc(F)c(Cl)c2)C(c2cccs2)c2c[nH]nc2N1 (configuration not stated)	440 nM	–	–	–	–	–
CC1=C(C(=O)Nc2ccc(F)c(Cl)c2)C(c2ccco2)n2c(nc3ccccc32)N1 (configuration not stated)	960 nM	5.73 µM	26 µM	10.9 µM	> 50 µM	–
CC1=C(C(=O)Nc2ccc(F)cc2)C(c2ccco2)n2c(nc3ccccc32)N1 (configuration not stated)	5650 nM	6.15 µM	7.38 µM	4.96 µM	> 50 µM	2.5
CC1=C(C(=O)Nc2ccc(F)cc2)C(c2ccco2)c2c[nH]nc2N1 (configuration not stated)	10400 nM	–	–	–	–	–
CN(C)c1ccc(-c2nc3cc(Cl)cnc3[nH]2)cc1	40200 nM	4.97 µM	5.85 µM	4.71 µM	4.26 µM	–
COc1ccc(NC(=O)C2=C(C)Nc3nc4ccccc4n3C2c2ccco2)cc1 (configuration not stated)	2460 nM	7.58 µM	4.97 µM	8.71 µM	9.34 µM	–
CC1=C(C(=O)Nc2ccc(C(F)(F)F)cc2)C(c2ccco2)n2c(nc3ccccc32)N1 (configuration not stated)	3320 nM	1.32 µM	–	> 50 µM	–	–
CC1=C(C(=O)Nc2ccc([N+](=O)[O-])cc2)C(c2cccs2)c2c[nH]nc2N1 (configuration not stated)	820 nM	–	–	–	–	–
CC1=C(C(=O)Nc2ccc([N+](=O)[O-])cc2)C(c2ccco2)c2c[nH]nc2N1 (configuration not stated)	2760 nM	–	–	–	–	–
CC1=C(C(=O)Nc2ccc([N+](=O)[O-])cc2)C(c2ccco2)n2c(nc3ccccc32)N1 (configuration not stated)	20800 nM	3 µM	13.5 µM	11.5 µM	3.05 µM	–
CCOC(=O)C1=C(C)NC(=S)NC1c1cccc(O)c1 (configuration not stated) [MONASTROL]	5470 nM	> 50 µM	–	> 50 µM	–	–
CC1=C(C(=O)Nc2ccc(C(F)(F)F)cc2)C(c2ccco2)c2c[nH]nc2N1 (configuration not stated)	1060 nM	–	–	–	–	–

These reach a lower IC50 [1]. Values come first.

IC50 [1]	IC50 (Aurora kinase A)	IC50 (HepG2)	IC50 (HCT-116 [2])	IC50 (A2780)	SMILES	Ratio IC50 (HCT-116 [3])
400 nM	–	–	–	–	CC1=C(C(=O)Nc2ccc(F)c(Cl)c2)C(c2ccco2)c2c[nH]nc2N1 (configuration not stated)	–
400 nM	–	–	–	–	CC1=C(C(=O)Nc2ccc(C(F)(F)F)cc2)C(c2ccccc2)c2c[nH]nc2N1 (configuration not stated)	–
320 nM	–	–	–	–	CC1=C(C(=O)Nc2ccc(C(F)(F)F)cc2)C(c2cccs2)c2c[nH]nc2N1 (configuration not stated)	–
200 nM	–	–	–	–	CC1=C(C(=O)Nc2ccc([N+](=O)[O-])cc2)C(c2ccccc2)c2c[nH]nc2N1 (configuration not stated)	–
180 nM	–	–	–	–	CC1=C(C(=O)Nc2ccc(Cl)cc2)C(c2ccccc2)C2=C(CC(C)(C)CC2=O)N1 (configuration not stated)	–
170 nM	–	–	–	–	CC1=C(C(=O)Nc2ccc(F)c(Cl)c2)C(c2ccccc2)c2c[nH]nc2N1 (configuration not stated)	–
140 nM	–	–	–	–	CC1=C(C(=O)Nc2ccc(F)cc2)C(c2ccccc2)c2c[nH]nc2N1 (configuration not stated)	–
29 nM	> 50 µM	2.1 µM	0.94 µM	3 µM	CCC(c1nc2cc(Cl)ccc2c(=O)n1Cc1ccccc1)N(CCCN(C)C)C(=O)c1ccc(Br)cc1 (configuration not stated) [CK0106023]	–
2.5 nM	–	–	–	–	COc1ccc(NC(=O)C2=C(C)Nc3n[nH]cc3C2c2cccs2)cc1 (configuration not stated)	–
1.1 nM	–	–	–	–	COc1ccc(NC(=O)C2=C(C)Nc3n[nH]cc3C2c2ccco2)cc1 (configuration not stated)	–
